Results: PubChem BioAssay (NCI)
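Test compounds were applied to cells in 96-well plates for 48 hours at 5 doses. GI50 is the concentration that inhibits growth by half. TGI is the concentration that stops growth completely.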

Assays:
Test in all cases: growth of human tumour cells (NCI), 48 h
786-0 renal = system: 786-0 renal
A498 renal = system: A498 renal
A549 NSCLC = system: A549 NSCLC
ACHN renal = system: ACHN renal
CAKI-1 renal = system: CAKI-1 renal
CCRF-CEM leukemia = system: CCRF-CEM leukemia
COLO 205 colon = system: COLO 205 colon
DLD-1 colon = system: DLD-1 colon
DMS 114 small cell lung = system: DMS 114 small cell lung
DMS 273 small cell lung = system: DMS 273 small cell lung
EKVX NSCLC = system: EKVX NSCLC
HCC-2998 colon = system: HCC-2998 colon
HCT-116 colon = system: HCT-116 colon
HCT-15 colon = system: HCT-15 colon
HL-60(TB) leukemia = system: HL-60(TB) leukemia
HOP-18 NSCLC = system: HOP-18 NSCLC
HOP-62 NSCLC = system: HOP-62 NSCLC
HOP-92 NSCLC = system: HOP-92 NSCLC
HT29 colon = system: HT29 colon
K-562 leukemia = system: K-562 leukemia
KM12 colon = system: KM12 colon
KM20L2 colon = system: KM20L2 colon
LOX IMVI melanoma = system: LOX IMVI melanoma
LXFL 529 NSCLC = system: LXFL 529 NSCLC
M14 melanoma = system: M14 melanoma
MALME-3M melanoma = system: MALME-3M melanoma
MOLT-4 leukemia = system: MOLT-4 leukemia
NCI-H226 lung = system: NCI-H226 lung
NCI-H460 lung = system: NCI-H460 lung
NCI-H522 lung = system: NCI-H522 lung
OVCAR-3 ovarian = system: OVCAR-3 ovarian
OVCAR-4 ovarian = system: OVCAR-4 ovarian
OVCAR-8 ovarian = system: OVCAR-8 ovarian
RPMI-8226 leukemia = system: RPMI-8226 leukemia
SF-268 CNS = system: SF-268 CNS
SF-295 CNS = system: SF-295 CNS
SF-539 CNS = system: SF-539 CNS
SK-MEL-2 melanoma = system: SK-MEL-2 melanoma
SK-MEL-28 melanoma = system: SK-MEL-28 melanoma
SK-MEL-5 melanoma = system: SK-MEL-5 melanoma
SK-OV-3 ovarian = system: SK-OV-3 ovarian
SN12C renal = system: SN12C renal
SNB-19 CNS = system: SNB-19 CNS
SNB-75 CNS = system: SNB-75 CNS
SW-620 colon = system: SW-620 colon
U251 CNS = system: U251 CNS
XF 498 CNS = system: XF 498 CNS
IGROV1 ovarian = system: IGROV1 ovarian
M19-MEL melanoma = system: M19-MEL melanoma
NCI-H23 lung = system: NCI-H23 lung
OVCAR-5 ovarian = system: OVCAR-5 ovarian
RXF 393 renal = system: RXF 393 renal
SNB-78 CNS = system: SNB-78 CNS
SR leukemia = system: SR leukemia
TK-10 renal = system: TK-10 renal
UACC-62 melanoma = system: UACC-62 melanoma
UO-31 renal = system: UO-31 renal

Question: Which TGI (786-0 renal) does the source give for COc1cccc(C=O)c1[O-].COc1cccc(C=O)c1[O-].[Cu+2] here?
Answer: The TGI was 31.9 µM.

Question: And the TGI (A498 renal)?
Answer: Its TGI is 39.4 µM.

Question: What about the TGI (A549 NSCLC) of the same molecule?
Answer: Its TGI is 55 µM.

Question: And the TGI (ACHN renal)?
Answer: Its TGI is 30.5 µM.

Question: What about the GI50 (CAKI-1 renal) of the same molecule?
Answer: Its GI50 is 2830 nM.

Question: And the TGI (CAKI-1 renal)?
Answer: Its TGI is 10.3 µM.

Question: What about the TGI (CCRF-CEM leukemia) of the same molecule?
Answer: The TGI was 28.3 µM.

Question: And the TGI (COLO 205 colon)?
Answer: Its TGI is 20.8 µM.

Question: What about the TGI (DLD-1 colon) of the same molecule?
Answer: Its TGI is 23.7 µM.

Question: What about the TGI (DMS 114 small cell lung) of the same molecule?
Answer: The TGI was 1200 nM.

Question: What about the TGI (DMS 273 small cell lung) of the same molecule?
Answer: Its TGI is 36.2 µM.

Question: And the TGI (EKVX NSCLC)?
Answer: The TGI was 77.7 µM.

Question: And the TGI (HCC-2998 colon)?
Answer: The TGI was 29 µM.

Question: And the TGI (HCT-116 colon)?
Answer: Its TGI is 30.1 µM.

Question: And the TGI (HCT-15 colon)?
Answer: Its TGI is 19.8 µM.

Question: What about the GI50 (HL-60(TB) leukemia) of the same molecule?
Answer: Its GI50 is 21.7 µM.

Question: What about the TGI (HL-60(TB) leukemia) of the same molecule?
Answer: The TGI was 46 µM.

Question: What about the TGI (HOP-18 NSCLC) of the same molecule?
Answer: Its TGI is 26.8 µM.

Question: And the TGI (HOP-62 NSCLC)?
Answer: The TGI was 31.7 µM.

Question: And the TGI (HOP-92 NSCLC)?
Answer: The TGI was 28 µM.

Question: What about the TGI (HT29 colon) of the same molecule?
Answer: Its TGI is 46.8 µM.

Question: What about the TGI (K-562 leukemia) of the same molecule?
Answer: Its TGI is 17.9 µM.

Question: What about the TGI (KM12 colon) of the same molecule?
Answer: Its TGI is 30.7 µM.

Question: And the TGI (KM20L2 colon)?
Answer: Its TGI is 32.3 µM.

Question: And the TGI (LOX IMVI melanoma)?
Answer: The TGI was 37.6 µM.

Question: What about the TGI (LXFL 529 NSCLC) of the same molecule?
Answer: Its TGI is 16.5 µM.

Question: What about the TGI (M14 melanoma) of the same molecule?
Answer: The TGI was 31.4 µM.

Question: What about the TGI (MALME-3M melanoma) of the same molecule?
Answer: The TGI was 20.1 µM.

Question: What about the TGI (MOLT-4 leukemia) of the same molecule?
Answer: The TGI was 18.6 µM.

Question: And the TGI (NCI-H226 lung)?
Answer: The TGI was 68.2 µM.

Question: What about the TGI (NCI-H460 lung) of the same molecule?
Answer: The TGI was 73.8 µM.

Question: What about the TGI (NCI-H522 lung) of the same molecule?
Answer: Its TGI is 19.3 µM.

Question: And the TGI (OVCAR-3 ovarian)?
Answer: The TGI was 21 µM.

Question: And the TGI (OVCAR-4 ovarian)?
Answer: The TGI was 6.85 µM.

Question: And the TGI (OVCAR-8 ovarian)?
Answer: The TGI was 44.7 µM.

Question: What about the TGI (RPMI-8226 leukemia) of the same molecule?
Answer: Its TGI is 41.4 µM.

Question: What about the TGI (SF-268 CNS) of the same molecule?
Answer: Its TGI is 35.3 µM.

Question: And the TGI (SF-295 CNS)?
Answer: The TGI was over 100 µM.

Question: And the TGI (SF-539 CNS)?
Answer: Its TGI is 41.4 µM.

Question: What about the TGI (SK-MEL-2 melanoma) of the same molecule?
Answer: The TGI was 12.8 µM.

Question: And the TGI (SK-MEL-28 melanoma)?
Answer: The TGI was 28.5 µM.

Question: What about the TGI (SK-MEL-5 melanoma) of the same molecule?
Answer: The TGI was 6.27 µM.

Question: And the TGI (SK-OV-3 ovarian)?
Answer: Its TGI is 31.8 µM.

Question: What about the TGI (SN12C renal) of the same molecule?
Answer: Its TGI is 34 µM.

Question: And the TGI (SNB-19 CNS)?
Answer: Its TGI is 31.2 µM.

Question: And the TGI (SNB-75 CNS)?
Answer: Its TGI is 35.4 µM.

Question: And the TGI (SW-620 colon)?
Answer: The TGI was 36.3 µM.

Question: And the TGI (U251 CNS)?
Answer: Its TGI is 35.4 µM.

Question: And the GI50 (XF 498 CNS)?
Answer: Its GI50 is 6.8 µM.

Question: And the TGI (XF 498 CNS)?
Answer: The TGI was 19.2 µM.

Question: How did the TGI (786-0 renal) turn out when Nc1ccc(C(=O)N/C(=C\c2cccc([N+](=O)[O-])c2)c2nc3ccccc3[nH]2)cc1 was run?
Answer: The TGI was over 100 µM.

Question: And the TGI (A498 renal)?
Answer: Its TGI is over 100 µM.

Question: And the TGI (A549 NSCLC)?
Answer: The TGI was over 100 µM.

Question: And the TGI (ACHN renal)?
Answer: The TGI was over 100 µM.

Question: And the TGI (CAKI-1 renal)?
Answer: Its TGI is over 100 µM.

Question: What about the TGI (CCRF-CEM leukemia) of the same molecule?
Answer: The TGI was over 100 µM.

Question: And the TGI (COLO 205 colon)?
Answer: The TGI was over 100 µM.

Question: What about the TGI (DLD-1 colon) of the same molecule?
Answer: The TGI was over 100 µM.

Question: And the TGI (DMS 114 small cell lung)?
Answer: The TGI was over 100000 nM.

Question: And the TGI (DMS 273 small cell lung)?
Answer: The TGI was over 100 µM.

Question: And the TGI (EKVX NSCLC)?
Answer: The TGI was over 100 µM.

Question: And the TGI (HCC-2998 colon)?
Answer: The TGI was over 100 µM.

Question: And the TGI (HCT-116 colon)?
Answer: Its TGI is over 100 µM.

Question: What about the TGI (HCT-15 colon) of the same molecule?
Answer: Its TGI is over 100 µM.

Question: What about the TGI (HL-60(TB) leukemia) of the same molecule?
Answer: The TGI was over 100 µM.

Question: What about the TGI (HOP-62 NSCLC) of the same molecule?
Answer: The TGI was 67 µM.

Question: What about the TGI (HOP-92 NSCLC) of the same molecule?
Answer: The TGI was over 66.4 µM.

Question: And the TGI (HT29 colon)?
Answer: The TGI was over 100 µM.

Question: And the TGI (IGROV1 ovarian)?
Answer: The TGI was over 100 µM.

Question: What about the TGI (K-562 leukemia) of the same molecule?
Answer: The TGI was over 100 µM.

Question: And the TGI (KM12 colon)?
Answer: Its TGI is over 100 µM.

Question: And the TGI (KM20L2 colon)?
Answer: Its TGI is over 100 µM.

Question: And the TGI (LOX IMVI melanoma)?
Answer: Its TGI is over 100 µM.

Question: And the TGI (LXFL 529 NSCLC)?
Answer: Its TGI is over 100 µM.

Question: What about the TGI (M14 melanoma) of the same molecule?
Answer: Its TGI is over 100 µM.

Question: What about the TGI (M19-MEL melanoma) of the same molecule?
Answer: Its TGI is over 100 µM.

Question: And the TGI (MALME-3M melanoma)?
Answer: The TGI was over 100 µM.

Question: And the TGI (MOLT-4 leukemia)?
Answer: The TGI was over 100 µM.

Question: What about the TGI (NCI-H226 lung) of the same molecule?
Answer: Its TGI is over 100 µM.

Question: What about the TGI (NCI-H23 lung) of the same molecule?
Answer: The TGI was over 100 µM.

Question: And the TGI (NCI-H460 lung)?
Answer: Its TGI is over 100 µM.

Question: And the TGI (NCI-H522 lung)?
Answer: Its TGI is 98.8 µM.

Question: What about the TGI (OVCAR-3 ovarian) of the same molecule?
Answer: Its TGI is over 100 µM.

Question: And the TGI (OVCAR-4 ovarian)?
Answer: Its TGI is over 83.3 µM.

Question: What about the TGI (OVCAR-5 ovarian) of the same molecule?
Answer: Its TGI is over 100 µM.

Question: And the TGI (OVCAR-8 ovarian)?
Answer: The TGI was over 100 µM.

Question: And the TGI (RPMI-8226 leukemia)?
Answer: The TGI was over 100 µM.

Question: And the TGI (RXF 393 renal)?
Answer: The TGI was 59.4 µM.

Question: And the TGI (SF-268 CNS)?
Answer: Its TGI is over 100 µM.

Question: What about the TGI (SF-295 CNS) of the same molecule?
Answer: Its TGI is over 100 µM.

Question: And the TGI (SF-539 CNS)?
Answer: The TGI was over 100 µM.

Question: What about the TGI (SK-MEL-2 melanoma) of the same molecule?
Answer: The TGI was over 100 µM.

Question: And the TGI (SK-MEL-28 melanoma)?
Answer: The TGI was over 100 µM.

Question: What about the TGI (SK-MEL-5 melanoma) of the same molecule?
Answer: The TGI was over 100 µM.

Question: What about the TGI (SK-OV-3 ovarian) of the same molecule?
Answer: The TGI was over 82.7 µM.

Question: What about the TGI (SN12C renal) of the same molecule?
Answer: The TGI was over 100 µM.

Question: And the TGI (SNB-19 CNS)?
Answer: The TGI was over 100 µM.

Question: And the TGI (SNB-75 CNS)?
Answer: The TGI was 69.4 µM.

Question: What about the TGI (SNB-78 CNS) of the same molecule?
Answer: Its TGI is over 100 µM.

Question: And the TGI (SR leukemia)?
Answer: Its TGI is over 100 µM.

Question: And the TGI (SW-620 colon)?
Answer: The TGI was over 100 µM.

Question: And the TGI (TK-10 renal)?
Answer: Its TGI is over 100 µM.

Question: What about the TGI (U251 CNS) of the same molecule?
Answer: The TGI was over 100 µM.

Question: And the TGI (UACC-62 melanoma)?
Answer: The TGI was over 100 µM.

Question: What about the TGI (UO-31 renal) of the same molecule?
Answer: The TGI was 63.8 µM.

Question: And the TGI (XF 498 CNS)?
Answer: The TGI was 59.8 µM.
